Source: ChEMBL document CHEMBL1148672, “Mimicking the biological activity of diazobenzo[b]fluorene natural products with electronically tuned diazofluorene analogs” (2006)
Active and inactive are the calls of the source. The rule behind the calls is not given here.

What was measured:
Nucleic Acid [1] = assay: Cleavage of supercoiled DNA plasmid pBR322 after 2 days; assay type: nucleic-acid assay
Nucleic Acid [2] = assay: Conversion of type 1 supercoiled DNA to type 2 nicked DNA in presence of dithiothreitol; assay type: nucleic-acid assay; design: concentration or dose not given beside the values
Nucleic Acid [3] = assay: Cleavage of supercoiled DNA plasmid pBR322 after 2 days in presence of dithiothreitol; assay type: nucleic-acid assay
Nucleic Acid [4] = assay: Conversion of type 1 supercoiled DNA to type 2 nicked DNA; assay type: nucleic-acid assay; design: concentration or dose not given beside the values
Nucleic Acid [5] = assay: Cleavage of supercoiled DNA plasmid pBR322 after 2 days in presence of sodium cyanide; assay type: nucleic-acid assay
HeLa [6] = assay: Antiproliferative activity against HeLa cells at 100 nM; assay type: functional, cell-based; details: Homo sapiens
Nucleic Acid [7] = assay: Cleavage of supercoiled DNA plasmid pBR322 after 2 days in presence of NADPH; assay type: nucleic-acid assay
Nucleic Acid [8] = assay: Conversion of type 1 supercoiled DNA to type 2 nicked DNA in presence of dithiothreitol relative to Kinamycin D; assay type: nucleic-acid assay
HeLa [9] = assay: Antiproliferative activity against HeLa cells at 100 nM after 12 hrs; assay type: functional; details: Homo sapiens

| Compound | Activity (Nucleic Acid [1]) | Activity (Nucleic Acid [2]) [%] | Activity (Nucleic Acid [4]) [%] | further results |
| --- | --- | --- | --- | --- |
| CC(=O)O[C@@H]1c2c(c3c(=O)c4cccc(O)c4c(=O)c=3c2=[N+]=[N-])[C@H](O)[C@@H](OC(C)=O)[C@]1(C)O | inactive | 28 | < 5 | Activity (Nucleic Acid [3]): Time-dependent effect |
| [N-]=[N+]=C1c2ccccc2-c2ccccc21 |  | < 5 | < 5 |  |
| [N-]=[N+]=C1c2ccccc2-c2c(Cl)cccc21 |  | < 5 | < 5 |  |
| [N-]=[N+]=c1c2c(=O)ccc(=O)c=2c2ccccc12 |  | 10 | < 5 |  |
| [N-]=[N+]=C1c2ccccc2-c2cccc([N+](=O)[O-])c21 |  | < 5 | < 5 |  |
| [N-]=[N+]=C1c2ccccc2-c2cccc(Cl)c21 |  | < 5 | < 5 |  |
| [N-]=[N+]=C1c2ccccc2-c2c(N)cccc21 | Active | 18 | 44 | Activity (Nucleic Acid [3]): Active; Activity (Nucleic Acid [8]): 64% |
| [N-]=[N+]=C1c2ccccc2-c2c1cccc2[N+](=O)[O-] |  | < 5 | < 5 |  |
| COc1ccc(OC)c2c1C(=[N+]=[N-])c1ccccc1-2 |  | 9 | < 5 |  |

Continued, in another order:

| Activity (Nucleic Acid [1]) | Activity (Nucleic Acid [2]) [%] | Activity (Nucleic Acid [4]) [%] | Compound | further results |
| --- | --- | --- | --- | --- |
| inactive |  |  | COc1cccc2c1C(=O)c1ccccc1-2 |  |
|  | 13 | < 5 | COc1cccc2c1-c1ccccc1C2=[N+]=[N-] |  |
|  | 41 | 11 | COc1cccc2c1C(=[N+]=[N-])c1ccccc1-2 | Activity (Nucleic Acid [5]): inactive; Activity (HeLa [6]): Time-dependent effect; Activity (Nucleic Acid [7]): inactive; Activity (Nucleic Acid [8]): 150%; inhibition at 0.1 µM (HeLa [9]): 35% |
| inactive |  |  | Nc1cccc2c1-c1ccccc1C2=O |  |
